Measurements reported in patent US20180055816A1, “PYRANONAPHTHOQUINONE COMPOUNDS AND METHODS OF USE THEREOF” (University of Kentucky Research Foundation, priority 2016, published 2018).

What was measured:
HCT116 cells = experiment: Cell growth / cytotoxicity in HCT116 cells; type: cell-based, human; settings: HCT116; 0.5 μM FB or UCF76-A versus 100 nM rapamycin, 0.5 μM AZD8055
Protocol: Compounds that pass this single dose filter are then tested in a CRC (HCT116) in vitro cytotoxicity assay and, in parallel, an in vitro assay to assess propensity for intracellular reactive oxygen species (ROS) production using the redox sensitive probe CeIIROX® Deep Red reagent (Invitrogen) by flow cytometry analysis (47).
Cell growth was assessed as described previously. Briefly, 5×10^4 cells were seeded in 6-well plates in triplicates. After 24 h, cells were treated with the indicated compounds and incubated at 37° C. The cells were cultured for 3 days and the number of viable cells was counted using the Vi-CELL XR 2.03 (Beckman Coulter, Brea, Calif.). For apoptosis, cells were analyzed by flow cytometry using the Annexin V-FITC Apoptosis Detection Kit according to the manufacturer's protocol (BD Biosciences, San Jose, Calif.).

[1] = tested on: cap-dependent translation; experiment: Cap-dependent translation bicistronic luciferase reporter assay in HCT116 cells; type: cell-based, human; settings: 12 h
S6 phosphorylation = S6 phosphorylation in HCT116 cells (Western blot); type: cell-based, human; settings: HCT116, 12 h; 2 μM FB or UCF76-A, 100 nM rapamycin, 0.5 μM AZD8055
Protocol: (§1) HCT116 cells were treated with 1 μM MK2206 and 100 nM PD0325901 alone and in combination, 100 nM rapamycin, 0.5 μM AZD8055, 2 μM UCF76-A or 2 μM FB for 12 h followed by Western blot analysis for the indicated proteins.
(§2) Cells were lysed in NP-40 lysis buffer (50 mM Tris-HCl, pH 7.5, 150 mM NaCl, 1 mM EDTA, 1% NP-40, 10% glycerol, protease and phosphatase inhibitor cocktail). Western blot analysis were performed using equivalent total protein loadings as described previously. For immunoprecipitation, the cell lysates were incubated with the indicated antibody overnight followed by incubation with a 50% slurry of protein G sepharose beads for 3 h at 4° C. The beads were washed three times with the lysis buffer, and the immunoprecipitated protein complexes were resuspended in 2× Laemmli sample buffer followed by western blot analysis.

AKT phosphorylation = AKT phosphorylation in HCT116 cells (Western blot); type: cell-based, human; settings: HCT116, 12 h; 2 μM FB or UCF76-A, 0.5 μM AZD8055, 1 μM MK2206
Protocol: as §1, §2

p70S6K phosphorylation = p70S6K phosphorylation in HCT116 cells (Western blot); type: cell-based, human; settings: HCT116, 12 h; 2 μM FB or UCF76-A, 100 nM rapamycin, 0.5 μM AZD8055
Protocol: as §1, §2

4E-BP1 phosphorylation = 4E-BP1 phosphorylation in DLD-1 colon cancer cells (Western blot); type: cell-based, human; settings: DLD-1 cells, 2 μM, 12 hours
Protocol: Cells were treated with 100 nM rapamycin, 0.5 μM AZD8055, 2 μM FB, 2 μM UCF76-A or DMSO control for 12 hours followed by Western blot analysis for the indicated proteins.
as §2

Grx3 = target: T1, Grx3 (Homo sapiens, UniProt O76003); experiment: Affinity pull-down / binding to Grx3; settings: streptavidin pull-down, competition, Western blot
T1 construct: endogenous in cells; host or cells: HeLa cell lysates; HCT116 cell lysates
T1 sequence (O76003 1-335): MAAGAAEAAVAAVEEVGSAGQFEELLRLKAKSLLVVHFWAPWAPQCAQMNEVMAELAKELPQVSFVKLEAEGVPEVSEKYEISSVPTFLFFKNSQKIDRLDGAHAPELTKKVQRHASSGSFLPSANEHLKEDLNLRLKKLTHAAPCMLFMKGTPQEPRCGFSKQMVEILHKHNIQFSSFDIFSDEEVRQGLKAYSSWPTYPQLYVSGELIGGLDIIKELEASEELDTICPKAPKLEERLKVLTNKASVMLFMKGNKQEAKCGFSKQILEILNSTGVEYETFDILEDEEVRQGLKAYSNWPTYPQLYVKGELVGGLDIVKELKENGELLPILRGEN
Protocol: (§3) The precipitates were resolved by SDS-PAGE, and the gel was stained with Coomassie blue. (C) Sequences illustrating amino acids and peptides of Prx1 and Grx3 identified by mass spectrometry analysis. The unique bands as shown by d7-pull down in the experiment for FIG. 20B were excised and subjected to in-gel tryptic digestion and analysis by MS, wherein the identified amino acids and peptides are shown in red characters. (D) Western blot illustrating that HCT116 cell lysates were incubated with different concentrations of d5 or d7 in the absence or presence of a ten-fold excess of FB for 3 h, followed by pull-down with streptavidin-agarose and Western blot analysis for the indicated proteins.
(§4) FIGS. 21A-D show images illustrating that the active probe d7 binds to and co-localizes with Prx1 and Grx3. (A) and (B) The recombinant Prx1 (A) or Grx3 (B) was incubated with d7 for 2 hours, followed by streptavidin pull down and Western blot analysis for the indicated proteins. (C) and (D) HCT116 cells were incubated with 25 μM d5, 25 μM d7 or DMSO as control for 5 hours, followed by confocal sections of the cells staining for Prx1 (C) or Grx3 (D) (red), biotin (green) and DAPI (blue). Scale bars, 10 μm.
(§5) HeLa cell pellets were purchased from National Cell Culture Center (Minneapolis, Minn.) and lysed in 20 ml of the NP-40 lysis buffer. […]

Prx1 = target: T2, Prx1 (Homo sapiens, UniProt Q06830); experiment: Affinity pull-down / binding to Prx1; design: endogenous in cells; host or cells: HeLa cell lysates; HCT116 cell lysates; settings: streptavidin pull-down, competition, Western blot
T2 sequence (Q06830 1-199): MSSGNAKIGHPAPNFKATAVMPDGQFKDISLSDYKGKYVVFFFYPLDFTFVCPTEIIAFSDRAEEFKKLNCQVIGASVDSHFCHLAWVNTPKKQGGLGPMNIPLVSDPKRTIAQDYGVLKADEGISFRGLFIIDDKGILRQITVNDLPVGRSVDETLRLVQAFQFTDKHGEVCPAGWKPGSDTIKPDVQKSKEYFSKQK
Protocol: as §3, §4, §5

binding to Grx3 (Grx3): directly targets
binding to Prx1 (Prx1): directly targets
SMILES: CCCC1OC2CC(=O)OC2C2=C1C(=O)c1c(O)cccc1C2=O (centres unmarked) [FB, frenolicin B]
inhibition of CRC cell growth compared with mTOR inhibitors (HCT116 cells): more potent than mTOR inhibitors
inhibition of cap-dependent translation [1]: effectively inhibit
inhibition of S6 phosphorylation (S6 phosphorylation): did not inhibit
inhibition of AKT phosphorylation (AKT phosphorylation): did not inhibit
inhibition of p70S6K phosphorylation (p70S6K phosphorylation): only weakly inhibited
inhibition of 4E-BP1 phosphorylation (4E-BP1 phosphorylation): selectively inhibit
